Legend:
[1] = tested on: human umbilical-vein endothelial cells (HUVEC); assay: Tube Formation Assay (TFA) Test, HUVEC in collagen gel; assay type: cell-based; conditions: Tables 75-83, 0.32 mM sample solution, method as for Compounds 1 through 60; for inhibition at 320 µM (stock): Homo sapiens, HUVEC, read-out: TFA Inhibition rate (%)
Summary of the method: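 Inhibition rate (%) of tube formation is computed from tube lengths against control (+) and control (-), measured after 20 h at 37 °C in M-199 with 20% FCS, 30 ng/ml b-FGF and 0.1 μM PMA. Samples were applied to HUVEC on collagen and covered by a second collagen layer (double-layer gel).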

HUFEC = assay: Cell Migration Assay (CMA) Test, inhibitory rate with control (-) correction; assay type: cell-based, human; conditions: Homo sapiens, 24 h, 125 μl of 0.32 mM sample solution in 4.0 ml medium, 80% or more = remarkable
Summary of the method: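 Confluent HUFEC monolayers were scratch-wounded, then cultured 24 h at 37 °C, 5% CO2 in M199 (2+) medium with compound added as 125 μl of a 0.32 mM solution (3.2% DMSO) per 4 ml. Giemsa-stained cells migrating into 1 mm×1 mm blocks counted; inhibition % calculated relative to control (+) and control (−) wells.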

Structure (SMILES)	inhibition at 320 µM (stock) [1] [%]	inhibition at 320 µM (stock) (HUFEC) [%]	TFA (inhibition rate, %) [1] [%]
COC(=O)C1=CO[C@@H](OC(=O)N2CCC(Cc3ccccc3)CC2)[C@H]2[C@@H]1CC[C@@H]2C [I-199]	6	25	–
CCN(CCO)C(=O)O[C@@H]1OC=C(C(=O)OC)[C@H]2CC[C@H](C)[C@@H]12 [I-203]	15.8	5.9	–
COC(=O)CNC(=O)O[C@@H]1OC=C(C(=O)OC)[C@H]2CC[C@H](C)[C@@H]12 [I-246]	4.9	23.4	–
COC(=O)C1=CO[C@@H](OC(=O)NCc2ccc(Cl)c(Cl)c2)[C@H]2[C@@H]1CC[C@@H]2C [I-196]	6.2	27.6	–
CCNC(=O)O[C@@H]1OC=C(C(=O)OC)[C@H]2CC[C@H](C)[C@@H]12 [I-262]	8.8	6.3	–
CCOC(=O)CCCNC(=O)O[C@@H]1OC=C(C(=O)OC)[C@H]2CC=C(C)[C@@H]12 [I-135]	4.7	23.4	–
COC(=O)C1=CO[C@@H](OC(=O)Nc2ccc(Cl)c(Cl)c2)[C@H]2[C@@H]1CC[C@@H]2C [I-255]	6	6.5	–
COC(=O)C1=CO[C@@H](OC(=O)NCCS)[C@@H]2C(C)=CC[C@H]12 [I-134]	8.6	7.1	–
COC(=O)C1=CO[C@@H](OC(=O)NCCc2ccccc2F)[C@@H]2C(C)=CC[C@H]12 [I-82]	5.5	13.7	–
C[C@@]12O[C@@H]1C[C@@H]1C(C(=O)O)=CO[C@@H](OC(=O)NCCCl)[C@@H]12 [I-69]	18	18.8	–
COC(=O)C1=CO[C@@H](OC(=O)NCc2ccc3c(c2)OCO3)[C@@H]2C(C)=CC[C@H]12 [I-129]	19.5	4.3	–
CCC(CC)NC(=O)O[C@@H]1OC=C(C(=O)OC)[C@H]2CC=C(C)[C@@H]12 [I-102]	8.2	15.6	–
CNC(=O)O[C@@H]1OC=C(C(=O)Nc2nccs2)[C@H]2C[C@@H]3O[C@]3(C)[C@@H]12 [I-62]	28.4	10.6	–
COC(=O)C1=CO[C@@H](OC(=O)NCCSCc2ccccc2)[C@H]2[C@@H]1CC[C@@H]2C [I-253]	5.7	25.1	–
COC(=O)C1=CO[C@@H](OC(=O)NCc2ccc(F)cc2)[C@H]2[C@@H]1CC[C@@H]2C [I-213]	6.2	21.5	–
COC(=O)C1=CO[C@@H](OC(=O)N2CC=C(c3ccccc3)CC2)[C@@H]2C(C)=CC[C@H]12 [I-140]	5.2	3.3	–
CCCCCCC1=CC[C@@H]2C(C(=O)OC)=CO[C@@H](OC(=O)NC)[C@H]12 [I-299]	8.8	5.9	–
COC(=O)C1=CO[C@@H](OC(=O)NCc2cccc(C(F)(F)F)c2)[C@H]2[C@@H]1CC[C@@H]2C [I-233]	4.1	5.5	–
CNC(=O)O[C@@H]1OC=C(C(=O)N2C[C@@H](C)O[C@@H](C)C2)[C@H]2CC=C(C)[C@@H]12 [I-311]	10.7	7.6	–
COC(=O)C1=CO[C@@H](OC(=O)N2CC=CCC2)[C@H]2[C@@H]1CC[C@@H]2C [I-194]	3	5.5	–
CNC(=O)O[C@@H]1OC=C(C)[C@H]2CC[C@@H](C)[C@@H]12 [I-283]	11	9.1	–
COC(=O)C1=CO[C@@H](OC(=O)NCCCc2ccccc2)[C@H]2[C@@H]1CC[C@@H]2C [I-217]	7.2	9.4	–
CNC(=O)O[C@@H]1OC=C(C(=O)O)[C@H]2CC[C@@H](C)[C@@H]12 [I-281]	31.1	27.9	–
COC(=O)C1=CO[C@@H](OC(=O)Nc2ccc(C)cc2)[C@H]2[C@@H]1CC[C@@H]2C [I-270]	5.9	28.7	–
COC(=O)C1=CO[C@@H](OC(=O)Nc2ccc(OC)cc2)[C@H]2[C@@H]1CC[C@@H]2C [I-263]	5.5	7.2	–
C=CCN(CC=C)C(=O)O[C@@H]1OC=C(C(=O)OC)[C@H]2CC[C@H](C)[C@@H]12 [I-230]	6.4	28.7	–
COC(=O)C1=CO[C@@H](OC(=O)Nc2ccc(OC)cc2)[C@@H]2C(C)=CC[C@H]12 [I-161]	8.2	14.4	–
COC(=O)C1=CO[C@@H](OC(=O)N(C)Cc2ccccc2)[C@@H]2C(C)=CC[C@H]12 [I-81]	8.3	31.2	–

Structure (SMILES)	inhibition at 320 µM (stock) [1] [%]	inhibition at 320 µM (stock) (HUFEC) [%]	TFA (inhibition rate, %) [1] [%]
COC(=O)C1=CO[C@@H](OC(=O)NCC#N)[C@H]2[C@@H]1CC[C@@H]2C [I-176]	2.2	11.7	–
CNC(=O)OCC1=CC[C@@H]2C(C(=O)OC)=CO[C@@H](OC(=O)NC)[C@H]12 [I-287]	30.1	35.2	–
COC(=O)C1=CO[C@@H](OC(=O)N2CCC2)[C@@H]2C(C)=CC[C@H]12 [I-148]	5.1	3.4	–
COC(=O)C1=CO[C@@H](OC(=O)N(C)CC2OCCO2)[C@@H]2C(C)=CC[C@H]12 [I-93]	2.4	5.8	–
CNC(=O)O[C@@H]1OC=C(C(=O)O)[C@H]2CC=C(C)[C@@H]12 [I-307]	–	52.5	50.2
COC(=O)C1=CO[C@@H](OC(=O)NCCCCCO)[C@H]2[C@@H]1CC[C@@H]2C [I-209]	4.9	8.9	–
COC(=O)C1=CO[C@@H](OC(=O)NC(CO)CO)[C@H]2[C@@H]1CC[C@@H]2C [I-249]	11.1	44	–
COC(=O)C1=CO[C@@H](OC(=O)NCCc2c[nH]c3ccccc23)[C@H]2[C@@H]1CC[C@@H]2C [I-220]	7.4	25	–
CCCCCC[C@]12O[C@H]1C[C@@H]1C(C(=O)OC)=COC[C@@H]12 [I-298]	9.5	7.8	–
COC(=O)C1=CO[C@@H](OC(=O)NCCc2ccc(O)c(OC)c2)[C@H]2[C@@H]1CC[C@@H]2C [I-248]	5.7	2.2	–
COC(=O)C1=CO[C@@H](OC(=O)Nc2ccc(SC)cc2)[C@@H]2C(C)=CC[C@H]12 [I-172]	8.7	5.5	–
COC(=O)C1=CO[C@@H](OC(=O)NCc2ccc(Cl)cc2)[C@H]2[C@@H]1CC[C@@H]2C [I-214]	5.7	11.7	–
COC(=O)C1=CO[C@@H](OC(=O)NCCc2ccc(O)c(OC)c2)[C@@H]2C(C)=CC[C@H]12 [I-146]	7.8	17.2	–
COC(=O)C1=CO[C@@H](OC(=O)NCc2cccc(F)c2)[C@H]2[C@@H]1CC[C@@H]2C [I-232]	2.9	6.5	–
COC(=O)C1=COC[C@@H]2C(C(=O)N3CCN(CCO)CC3)=CC[C@H]12 [I-293]	11.2	69.3	–
COC(=O)C1=CO[C@@H](OC(=O)NCc2ccc(Cl)c(Cl)c2)[C@@H]2C(C)=CC[C@H]12 [I-74]	5.8	23.4	–
COC(=O)C1=CO[C@@H](OC(=O)NC2CC2)[C@H]2[C@@H]1CC[C@@H]2C [I-218]	5.4	25	–
COC(=O)C1=CO[C@@H](OC(=O)N2CCCCC2)[C@H]2[C@@H]1CC[C@@H]2C [I-216]	3.7	9.4	–
COC(=O)C1=CO[C@@H](OC(=O)N2CC=C(c3ccccc3)CC2)[C@H]2[C@@H]1CC[C@@H]2C [I-242]	4.8	5.1	–
COC(=O)C1=CO[C@@H](OC(=O)N2CCc3ccccc3C2)[C@H]2[C@@H]1CC[C@@H]2C [I-225]	5.5	25	–
COC(=O)C1=CO[C@@H](OC(=O)Nc2cccc(C#N)c2)[C@H]2[C@@H]1CC[C@@H]2C [I-267]	5.8	14.9	–
COC(=O)C1=CO[C@@H](OC(=O)NCc2ccncc2)[C@H]2[C@@H]1CC[C@@H]2C [I-221]	24.5	15.6	–
COC(=O)C1=CO[C@@H](OC(=O)NCCCN2CCOCC2)[C@H]2[C@@H]1CC[C@@H]2C [I-229]	3	19.5	–
COC(=O)C1=CO[C@@H](OC(=O)NCc2ccccn2)[C@@H]2C(C)=CC[C@H]12 [I-75]	4.3	11.7	–
COC(=O)C1=CO[C@@H](OC(=O)N2CCC(Cc3ccccc3)CC2)[C@@H]2C(C)=CC[C@H]12 [I-94]	6.2	3.9	–
C[C@]12O[C@H]1C[C@@H]1C(C(=O)O)=CO[C@@H](OC(=O)NCCCl)[C@@H]12 [I-66]	19.7	30.5	–
COC(=O)C1=CO[C@@H](OC(=O)NC2CCN(Cc3ccccc3)CC2)[C@H]2[C@@H]1CC[C@@H]2C [I-192]	4.5	7.8	–

Source: patent publication US6225478A, “Iridoid derivatives and neovascularization inhibitors containing the same as active ingredient” (Tsumura & Co., priority 1999, dated 2001)
